# Measurements from PubChem BioAssay AID256 (DTP/NCI, 2004).
# Values joined by “and” are separate entries in the source; they are usually repeats but may differ in a detail not shown here. Identical values can stand only once. Inconclusive results and toxic doses are left out.
# Test system: CD2F1 mice, L1210 leukemia ip, survival T/C
# Assay: NCI In Vivo Anticancer Drug Screen. Data for tumor model L1210 Leukemia (intraperitoneal) in CD2F1 (CDF1) mice
# Conditions: higher = longer survival
# In short: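 Compound-dosed mice with transplantable tumor versus matched vehicle controls; endpoint ratio T/C reported.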
# [1] = endpoint: mean survival time, dose: 100.0 mg/kg/injection, schedule: Q01DX009 (ip), vehicle: saline with Tween-80
# [2] = endpoint: mean survival time, dose: 200.0 mg/kg/injection, schedule: Q01DX009 (ip), vehicle: saline with Tween-80
# [3] = endpoint: mean survival time, dose: 400.0 mg/kg/injection, schedule: Q01DX009 (ip), vehicle: saline with Tween-80
# [4] = endpoint: mean survival time, dose: 100.0 mg/kg/injection, schedule: Q04DX003 (ip), vehicle: saline with Tween-80
# [5] = endpoint: mean survival time, dose: 200.0 mg/kg/injection, schedule: Q04DX003 (ip), vehicle: saline with Tween-80
# [6] = endpoint: mean survival time, dose: 400.0 mg/kg/injection, schedule: Q04DX003 (ip), vehicle: saline with Tween-80
# [7] = endpoint: mean survival time, dose: 50.0 mg/kg/injection, schedule: Q04DX002 (ip), vehicle: saline with Tween-80
smiles,measurement,setting,value
CC(=O)Oc1ccccc1C(CC(C)C)OC(C)=O (configuration not stated),T/C,"endpoint: mean survival time, dose: 100.0 mg/kg/injection, schedule: Q01DX001 (ip), vehicle: saline",96 % of control
same,T/C,"endpoint: mean survival time, dose: 200.0 mg/kg/injection, schedule: Q01DX001 (ip), vehicle: saline",96 % of control
C/C(=C\C(=O)c1ccccc1)OB(F)F,T/C,[1],98 % of control and 100 % of control
same,T/C,[2],110 % of control and 100 % of control
same,T/C,[3],100 % of control
CCN(CC)CCCC(C)NC(C)CCCN(CC)CC (configuration not stated),T/C,"endpoint: mean survival time, dose: 25.0 mg/kg/injection, schedule: Q01DX009 (ip), vehicle: Klucel (hydroxypropylcellulose) (HPC)",95 % of control
same,T/C,"endpoint: mean survival time, dose: 50.0 mg/kg/injection, schedule: Q01DX009 (ip), vehicle: Klucel (hydroxypropylcellulose) (HPC)",95 % of control
Clc1ccccc1/C=C1\c2ccccc2-c2nc3ccccc3nc21,T/C,[4],109 % of control
same,T/C,[5],103 % of control
same,T/C,[6],97 % of control
N=[N+]=CC(=O)CC(N)C(=O)O (configuration not stated),T/C,"endpoint: median survival time, dose: 400.0 mg/kg/injection, schedule: Q01DX001 (ip), vehicle: saline",111 % of control
same,T/C,"endpoint: median survival time, dose: 800.0 mg/kg/injection, schedule: Q01DX001 (ip), vehicle: saline",112 % of control
same,T/C,"endpoint: median survival time, dose: 1600.0 mg/kg/injection, schedule: Q01DX001 (ip), vehicle: saline",25 % of control
O=C(O)c1nn2c(=O)[nH]c3ccccc3c2c1C(=O)O,T/C,"endpoint: mean survival time, dose: 12.5 mg/kg/injection, schedule: Q04DX002 (ip), vehicle: saline with Tween-80",90 % of control
same,T/C,"endpoint: mean survival time, dose: 25.0 mg/kg/injection, schedule: Q04DX002 (ip), vehicle: saline with Tween-80",94 % of control
same,T/C,[7],87 % of control
Cc1ccc(NC(=O)Nc2ccccc2C(N)=O)cc1,T/C,"endpoint: mean survival time, dose: 100.0 mg/kg/injection, schedule: Q01DX009 (ip), vehicle: saline sonified",97 % of control
same,T/C,"endpoint: mean survival time, dose: 200.0 mg/kg/injection, schedule: Q01DX009 (ip), vehicle: saline sonified",98 % of control
same,T/C,"endpoint: mean survival time, dose: 400.0 mg/kg/injection, schedule: Q01DX009 (ip), vehicle: saline sonified",100 % of control
CC(C)CCCC(C)C1CCC2C3CC=C4CC(OC(=O)CCC(C)C)CC(O)C4(C)C3CCC12C (configuration not stated),T/C,[1],96 % of control
same,T/C,[2],94 % of control
same,T/C,[3],94 % of control
CC(=O)Nc1ccc(CN(C)N=Nc2ccc(C(=O)O)cc2)cc1,T/C,"endpoint: mean survival time, dose: 25.0 mg/kg/injection, schedule: Q01DX009 (ip), vehicle: water",95 % of control
same,T/C,"endpoint: mean survival time, dose: 50.0 mg/kg/injection, schedule: Q01DX009 (ip), vehicle: water",97 % of control
same,T/C,"endpoint: mean survival time, dose: 100.0 mg/kg/injection, schedule: Q01DX009 (ip), vehicle: water",106 % of control
same,T/C,"endpoint: mean survival time, dose: 200.0 mg/kg/injection, schedule: Q01DX009 (ip), vehicle: water",86 % of control
same,T/C,"endpoint: mean survival time, dose: 400.0 mg/kg/injection, schedule: Q01DX009 (ip), vehicle: water",95 % of control
Clc1nc(Cl)c(Nc2ccn[nH]2)nc1Cl,T/C,"endpoint: mean survival time, dose: 100.0 mg/kg/injection, schedule: Q04DX003 (ip), vehicle: saline sonified",100 % of control
same,T/C,"endpoint: mean survival time, dose: 200.0 mg/kg/injection, schedule: Q04DX003 (ip), vehicle: saline sonified",98 % of control
same,T/C,"endpoint: mean survival time, dose: 400.0 mg/kg/injection, schedule: Q04DX003 (ip), vehicle: saline sonified",95 % of control
CCCC(O)C1CCCCC1O (configuration not stated),T/C,[1],92 % of control
same,T/C,[2],92 % of control
same,T/C,[3],96 % of control
Cc1c2cc[n+](CCN3CCCCC3)cc2c(C)c2c1[nH]c1ccc(O)cc12,T/C,"endpoint: mean survival time, dose: 1.56 mg/kg/injection, schedule: Q01DX009 (ip), vehicle: suspension in saline",160 % of control
same,T/C,"endpoint: mean survival time, dose: 12.5 mg/kg/injection, schedule: Q01DX009 (ip), vehicle: saline",150 % of control
same,T/C,"endpoint: mean survival time, dose: 12.5 mg/kg/injection, schedule: Q01DX009 (ip), vehicle: suspension in saline",121 % of control
same,T/C,"endpoint: mean survival time, dose: 50.0 mg/kg/injection, schedule: Q01DX009 (ip), vehicle: saline",188 % of control
same,T/C,"endpoint: mean survival time, dose: 50.0 mg/kg/injection, schedule: Q01DX009 (ip), vehicle: suspension in saline",92 % of control
CC1(c2ccc(O)cc2)CCC(C(C)(C)c2ccc(O)cc2)CC1 (configuration not stated),T/C,[4],92 % of control
same,T/C,[5],90 % of control
same,T/C,[6],90 % of control
O=[N+]([O-])c1cccc(/C=N\[n+]2ccccc2)c1,T/C,[7],97 % of control
same,T/C,"endpoint: mean survival time, dose: 100.0 mg/kg/injection, schedule: Q04DX002 (ip), vehicle: saline with Tween-80",100 % of control
same,T/C,"endpoint: mean survival time, dose: 200.0 mg/kg/injection, schedule: Q04DX002 (ip), vehicle: saline with Tween-80",100 % of control
C(#Cc1ccccc1)/C=C/C(=C\c1ccccc1)c1ccccc1,T/C,"endpoint: mean survival time, dose: 100.0 mg/kg/injection, schedule: Q01DX001 (ip), vehicle: saline with Tween-80",92 % of control
same,T/C,"endpoint: mean survival time, dose: 200.0 mg/kg/injection, schedule: Q01DX001 (ip), vehicle: saline with Tween-80",89 % of control
same,T/C,"endpoint: mean survival time, dose: 400.0 mg/kg/injection, schedule: Q01DX001 (ip), vehicle: saline with Tween-80",87 % of control
